# Results: patent US5011828A, “Immunostimulating guanine derivatives, compositions and methods” (priority 1988, dated 1991)
# Legend:
# [1] = tested on: human peripheral blood lymphocytes (sheep red blood cells as antigen); assay: Antigen-specific adjuvanticity: direct anti-SRBC plaque forming cells, human system; assay type: cell-based
# Procedure: ^1 Studies were carried in a manner similar to those of Table 1,
# except that a human lymphocyte preparation was used.
# The results shown in Table 7, below, were obtained similarly to those discussed above, but using human lymphocytes. Some of those studies utilized lymphocytes from more than one individual, and are therefore reported with multiple entries.
# Human peripheral blood lymphocytes (PBL) were prepared from normal heparinized venous blood by Ficoll-diatrizoate density gradient centrifugation. PBL were depleted of suppressor T cells bearing the histamine type 2 receptor by adhering them to the surfaces of histamine-rabbit serum albumin-coated plastic petri dishes (Cell-ect No. 2 kit; Seragen, Boston, Mass.) and by recovering the nonadherent cells by panning as described by Wysocki and Sato, Proc. Natl. Acad. Sci. USA, 75:2844 (1978) and modified by Cavagnaro and Osband, Biotechniques, January/February:30 (1983).
# The tissue culture medium employed in these studies for human lymphocytes was prepared as follows: One hundred milliliters (ml) contained 87.9 ml RPMI 1640 (Flow Laboratories, Rockville, Md.), 0.1 ml 100×glutamine,1.0 ml of 1.0 M HEPES buffer (Microbilogical Associates, Betheseda, Md.), 1.0 ml of water containing 10^4 U of penicillin G and 10^4 micrograms of streptomycin, and 10 ml of fresh autologous heat-inactivatedplasma. For evaluation of the primary humoral immune response to SRBC, lymphoid cells prepared as above were cultured at a density of 2×10^6 /ml in a volume of 1.0 ml containing 5×10^6 SRBC as antigen (Colorado Serum Co., Denver, Colo.) together with IL-2 (a partially purified preparation of human IL-2 that was free of interferon-gamma activity was obtained from Electro-Nucleonics, Inc., Silver Spring, Md.) and the guanine nucleoside derivative.
# (§1) Assay of plaque forming cells (PFC). PFC secreting antibodies against SRBC were evaluated after 4 or 5 days of culture using a modification of the hemolytic plaque assay of Jerne and Nordin, Science, 140:405 (1963). The cells were brought up in complete medium before plaquing; they were plaqued in standard low Mr agarose (Bio-Rad Laboratories, Richmond Calif.), and were incubated in SRBC-absorbed guinea pig complement for one hour after a 1.5 hour incubation without complement.
# [2] = tested on: murine lymphocytes (sheep red blood cells as antigen); assay: Antigen-specific adjuvanticity: direct anti-SRBC plaque forming cells, murine system; assay type: cell-based, mouse; settings: for Average 1 Log Plaque Values: Table 9, murine, * = single study
# From the text: ^1 Adjuvanticities against sheep red blood cells [SRBC] measured in
# direct plaqueforming cells per culture of lymphocytes from the mouse
# strains shown. Details of the procedure are provided in the Materials and
# Methods Section. Standard errors from the enumerated mean values are show
# A large number of comparisons of adjuvanticity using human and murine lymphocytes as the source of leukocytes have been carried out using compounds of the present invention, as well as with new compounds excluded from the present invention. […] Interstudy comparisons are however useful for showing trends and large differences. Tables 5, 6 and 7, hereinafter, provide exemplary data from such studies in which only the activity at the peak concentration is shown for each compound and the results for the controls are omitted.
# Lymphocyte cultures. The serum-containing culture medium water prepared to contain the following per 100 milliliters: 91.9 milliliters RPMI 1640 (Flow Laboratories, Inc., Rockville, Md.), 0.1 milliliters of 100×glutamine, 1.0 milliliter of 100×sodium pyruvate, 1 0 milliliter of 50×nonessential amino acids, 1.0 milliliter of water containing 10^4 units of penicillin G and 10^4 micrograms of streptomycin, and 5.0 milliliters of a supportive lot of fetal calf serum (FCS). These ingredients were admixed to apparent homogeneity. Spleen cell suspensions and populations enriched for splenic B cells were prepared as described in Goodman et al., J. Immunol., 121:1905 (1978).
# For evaluation of the primary humoral immune response to sheep erythrocytes (SRBC), 5×10^6 to 10^7 murine spleen cells were cultured in 1.0 milliliter of 5% FCS-containing medium for 4 or 5 days in the presence and absence of immunogen. Cells were incubated in culture trays (Costar, Cambridge, Mass.) at 37° C. in a humidified atmosphere of 10% CO2 in air using tissue culture boxes (CBS Scientific, Del Mar, Calif.) that were rocked at a frequency of 7 cycles per minute. Pooled SRBC are available from the Colorado Serum Co., Denver Colo.
# as §1
# [3] = tested on: murine spleen cells; assay: Mitogenicity: [3H]TdR uptake, murine system; assay type: cell-based, mouse; settings: Table 2
# From the text: ^1 Mitogenicity measured by the uptake of [^3 H]TdR
# (tritiumlabeled thymidine deoxyribonucleoside) as determined by measuring
# counts per minute (cpm) per cell culture using the conditions discussed i
# the Materials and Methods Section.
# [4] = Table 7, later studies, single preparation
# [5] = Table 5, murine system, at peak concentration
# [6] = Table 6, murine system, at peak concentration
smiles,measurement,setting,value
"C=CCn1c(=[Se])n([C@@H]2O[C@H](CO)[C@@H](O)[C@H]2O)c2nc(N)[nH]c(=O)c21 [compound 23369, 7-(2-Propenyl)-8-selenoxoguanosine]",Peak Direct anti-SRBC PFC/Culture,[1]; [4],2204 ± 370 PFC/Culture
same,Peak Direct anti-SRBC PFC/Culture,[2]; [5],2425 ± 229 PFC/Culture
"CC=CCSc1nc2c(=O)[nH]c(N)nc2n1[C@@H]1O[C@H](CO)[C@@H](O)[C@H]1O [compound 22435, 8-(2-Butenylmercapto)guanosine]",Direct Anti-SRBC PFC/Culture,"[2]; Table 1, C57BL/6J, 3 × 10^-4 M",9130 ± 1110 PFC/Culture
same,Direct Anti-SRBC PFC/Culture,"[2]; Table 1, C57BL/6J, 10^-3 M","12,080 ± 470 PFC/Culture"
same,Direct Anti-SRBC PFC/Culture,"[2]; Table 1, CBA/CaJ, 3 × 10^-4 M",582 ± 52 PFC/Culture
same,Direct Anti-SRBC PFC/Culture,"[2]; Table 1, CBA/CaJ, 10^-3 M",607 ± 57 PFC/Culture
same,Direct Anti-SRBC PFC/Culture,"[2]; Table 1, CBA/CaJ, 10^-4 M",247 ± 38 PFC/Culture
same,"adjuvanticity, in words",[2]; murine system,"greater than that of the longer 8-cinnamyl derivative (22359), but less than that of the 8-mercapto compound (8MGuo)"
same,[3H] TdR Uptake,[3]; 3 × 10^-4 M,8800 ± 200 cpm/culture
same,[3H] TdR Uptake,[3]; 10^-3 M,"11,200 ± 202 cpm/culture"
same,[3H] TdR Uptake,[3]; 10^-4 M,4500 ± 120 cpm/culture
"C=CCn1c(=S)n([C@@H]2O[C@H](CO)[C@H]3OC(C)(C)O[C@H]32)c2nc(N)[nH]c(=O)c21 [compound 23083, 7-(2-Propenyl)-8-thioxo-2',3'-O-isopropylidineguanosine hemihydrate]",Peak Direct anti-SRBC PFC/Culture,[2]; [6],2150 ± 250 PFC/Culture
same,"adjuvanticity, in words",[2]; murine system,"activity substantially identical to that of 7a8oGuo, albeit at about one-half log higher concentration"
"Nc1nc2c(c(=O)[nH]1)n(Cc1ccccc1)c(=O)n2[C@@H]1O[C@H](CO)[C@@H](O)[C@H]1O [compound 24234, 7-Benzyl-8-oxoguanosine]",Peak Direct anti-SRBC PFC/Culture,[2]; [5],2004 PFC/Culture
same,Average 1 Log Plaque Values,[2],"110,777 ± 42,823 per micromole"
"C=CCn1c(=S)n([C@@H]2O[C@H](COC(C)=O)[C@@H](OC(C)=O)[C@H]2OC(C)=O)c2nc(N)[nH]c(=O)c21 [compound 22360, 7-(2-Propenyl)-8-thioxo-2',3',5'-triacetylguanosine]",Peak Direct anti-SRBC PFC/Culture,"[1]; Table 7, second group, person a",925 PFC/Culture
same,Peak Direct anti-SRBC PFC/Culture,"[1]; Table 7, second group, person b",6008 PFC/Culture
same,Peak Direct anti-SRBC PFC/Culture,"[1]; Table 7, second group, person c",5050 PFC/Culture
same,Average 1 Log Plaque Values,"[1]; Table 9, human, * = single study","38,508 ± 26,802 per micromole"
same,Peak Direct anti-SRBC PFC/Culture,[2]; [6],743 ± 48 PFC/Culture
same,Direct Anti-SRBC PFC/Culture,"[2]; Table 8, 1 × 10^-5 M",1176 PFC/Culture
same,Average 1 Log Plaque Values,[2],"53,695 ± 28,444 per micromole"
"C=CCn1c(=S)n(C2OC(COC(=O)c3ccccc3)C3OC(C)(C)OC32)c2nc(N)nc(OC(=O)c3ccccc3)c21 (stereo not shown) [compound 23314, 7-(2-Propenyl)-6,5'-dibenzoyl-2',3'-O-isopropylidene-8-thioxoguanosine]",Peak Concentration,"[2]; Table 6, murine system",10^-5 moles per liter
same,Peak Direct anti-SRBC PFC/Culture,"[2]; Table 6, study b",243 ± 19 PFC/Culture
"C=CCn1c(=S)n([C@@H]2O[C@H](COC(=O)c3ccccc3)[C@H]3OC(C)(C)O[C@H]32)c2nc(NC(=O)c3ccccc3)[nH]c(=O)c21 [compound 23350, 7-(2-Propenyl)-2-N,5'-O-dibenzoyl-2',3'-O-isopropylidene-8-thioxoguanosine hemihydrate]",Peak Direct anti-SRBC PFC/Culture,"[2]; Table 6, study c",45 ± 8 PFC/Culture
same,"adjuvanticity, in words",[2]; murine system,substantially inactive at the concentrations utilized
"Nc1nc2c(nc(Br)n2[C@@H]2O[C@H](CO)[C@@H](O)[C@H]2O)c(=O)[nH]1 [8BrGuo, 8-bromoguanosine, reference compound]",Peak Direct anti-SRBC PFC/Culture,[2]; [5],2450 ± 325 PFC/Culture
same,Peak Direct anti-SRBC PFC/Culture,"[2]; Table 6, first study (note 4)",1167 ± 68 PFC/Culture
same,Peak Direct anti-SRBC PFC/Culture,"[2]; Table 6, second study (note 4)",633 ± 96 PFC/Culture
"CCCCCCn1c(=O)n([C@@H]2O[C@H](CO)[C@@H](O)[C@H]2O)c2nc(N)[nH]c(=O)c21 [compound 23924, 7-Hexyl-8-oxoguanosine]",Direct Anti-SRBC PFC/Culture,"[2]; Table 8, 1 × 10^-5 M",243 PFC/Culture
"CCCn1c(=O)n([C@@H]2O[C@H](CO)[C@@H](O)[C@H]2O)c2nc(N)[nH]c(=O)c21 [compound 24069, 7-Propyl-8-oxoguanosine]",Direct Anti-SRBC PFC/Culture,"[2]; Table 8, 1 × 10^-5 M",1306 PFC/Culture
"CCCCCCCCCCn1c(=O)n([C@@H]2O[C@H](CO)[C@@H](O)[C@H]2O)c2nc(N)[nH]c(=O)c21 [compound 23894, 7-Decyl-8-oxoguanosine]",Peak Direct anti-SRBC PFC/Culture,[2]; [5],90 ± 15 PFC/Culture
"Nc1nc2c(nc(SCC=Cc3ccccc3)n2[C@@H]2O[C@H](CO)[C@@H](O)[C@H]2O)c(=O)[nH]1 [compound 22359, 8-(Cinnamylmercapto)guanosine]",Direct Anti-SRBC PFC/Culture,"[2]; Table 1, C57BL/6J, 3 × 10^-4 M",2620 ± 100 PFC/Culture
same,Direct Anti-SRBC PFC/Culture,"[2]; Table 1, C57BL/6J, 10^-3 M",3110 ± 350 PFC/Culture
same,Direct Anti-SRBC PFC/Culture,"[2]; Table 1, CBA/CaJ, 3 × 10^-4 M",157 ± 7 PFC/Culture
same,Direct Anti-SRBC PFC/Culture,"[2]; Table 1, CBA/CaJ, 10^-3 M",653 ± 52 PFC/Culture
same,Direct Anti-SRBC PFC/Culture,"[2]; Table 1, CBA/CaJ, 10^-4 M",123 ± 21 PFC/Culture
same,[3H] TdR Uptake,[3]; 3 × 10^-4 M,1300 ± 80 cpm/culture
same,[3H] TdR Uptake,[3]; 10^-3 M,1700 ± 280 cpm/culture
same,[3H] TdR Uptake,[3]; 10^-4 M,1600 ± 90 cpm/culture
"C=CCSc1nc2c(=O)[nH]c(N)nc2n1[C@@H]1O[C@H](CO)[C@@H](O)[C@H]1O [compound 22300, 8-(2-propenylmercapto)guanosine]",Direct Anti-SRBC PFC/Culture,"[2]; Table 1, CBA/CaJ, 3 × 10^-4 M",870 ± 70 PFC/Culture
same,Direct Anti-SRBC PFC/Culture,"[2]; Table 1, CBA/CaJ, 10^-3 M",490 ± 133 PFC/Culture
same,Direct Anti-SRBC PFC/Culture,"[2]; Table 1, CBA/CaJ, 10^-4 M",420 ± 105 PFC/Culture
same,"adjuvanticity, in words",[2]; murine system,about equal adjuvanticity to that of 8MGuo
same,[3H] TdR Uptake,[3]; 10^-3 M,"16,400 ± 1130 cpm/culture"
same,[3H] TdR Uptake,[3]; 10^-4 M,2700 ± 130 cpm/culture
"C=CCn1c(=S)n([C@@H]2O[C@H](COC(C)=O)[C@H]3OC(C)(C)O[C@H]32)c2nc(N)[nH]c(=O)c21 [compound 23287, 5'-Acetyl-7-(2-propenyl)-2',3'-O-isopropylidene-8-thioxoguanosine]",Peak Direct anti-SRBC PFC/Culture,"[2]; Table 6, first study (note 4)",1650 ± 63 PFC/Culture
same,Peak Direct anti-SRBC PFC/Culture,"[2]; Table 6, second study (note 4)",1675 ± 298 PFC/Culture
same,"adjuvanticity, in words",[2]; murine system,about twice that exhibited by 8-bromoguanosine (8BrGuo)
"CC=CCn1c(=O)n([C@@H]2O[C@H](CO)[C@@H](O)[C@H]2O)c2nc(N)[nH]c(=O)c21 [compound 23679, 7-(2-Butenyl)-8-oxoguanosine]",Peak Direct anti-SRBC PFC/Culture,[1]; [4],3129 ± 252 PFC/Culture
same,Direct Anti-SRBC PFC/Culture,"[2]; Table 8, 1 × 10^-5 M",612 PFC/Culture
same,Average 1 Log Plaque Values,[2],"52,332 per micromole"
"C=CCn1c(=S)n(C2OC(COC(=O)c3ccccc3)C3OC(C)(C)OC32)c2nc(N)[nH]c(=O)c21.O (stereo not shown) [compound 23351, 7-(2-Propenyl)-5'-benzoyl-2',3'-O-isopropylideneguanosine-8-thioxoguanosinequarterhydrate]",Peak Concentration,"[2]; Table 6, murine system",10^-4 moles per liter
same,Peak Direct anti-SRBC PFC/Culture,"[2]; Table 6, study a",1431 ± 134 PFC/Culture
same,"adjuvanticity, in words",[2]; murine system,A similar result was obtained
"Nc1nc2c(c(=O)[nH]1)n(CC=Cc1ccccc1)c(=O)n2[C@@H]1O[C@H](CO)[C@@H](O)[C@H]1O [compound 22827, 7-[(3-Phenyl)-2-propenyl]-8-oxoguanosine]",Peak Direct anti-SRBC PFC/Culture,[1]; [4],2577 ± 300 PFC/Culture
same,Peak Direct anti-SRBC PFC/Culture,[2]; [5],1357 ± 226 PFC/Culture
same,"adjuvanticity higher / more active than comparison compound of U.S. Pat. No. 4,643,992","[2]; murine system (Table 5), vs 7m8oGuo or compounds of that patent",more than 100%
